Test results as given in ChEMBL document CHEMBL3286360, “Tuning the antimicrobial pharmacophore to enable discovery of short lipopeptides with multiple modes of action” (Eur J Med Chem, 2014).
Converted amounts (≈) assume the structure as drawn. Where a SMILES comes first, the peptide text is derived from it. The star is where a group is joined. Stearoyl = CCCCCCCCCCCCCCCCCC(=O)*; Palmitoyl = CCCCCCCCCCCCCCCC(=O)*; Myristoyl = CCCCCCCCCCCCCC(=O)*; Decanoyl = CCCCCCCCCC(=O)*; Hexanoyl = CCCCCC(=O)*

Columns and labels:
Assay type in all cases: functional
[1] = test system: Staphylococcus aureus; test: Antimicrobial activity against Staphylococcus aureus ATCC 12600 after 17 to 20 hrs by serial dilution method
[2] = test system: Escherichia coli; test: Antimicrobial activity against Escherichia coli ATCC 25922 after 17 to 20 hrs by serial dilution method
[3] = test system: Candida albicans; test: Antimicrobial activity against Candida albicans ATCC 14053 after 17 to 20 hrs by serial dilution method

With CCCCCCCCCCCCCCCCCC(=O)N[C@@H](CCCCN)C(=O)N[C@H](C(=O)N[C@@H](CCCNC(=N)N)C(=O)N[C@@H](Cc1c[nH]c2ccccc12)C(=O)N[C@@H](Cc1c[nH]c2ccccc12)C(=O)N[C@@H](CCCNC(=N)N)C(N)=O)[C@@H](C)CC (Stearoyl-KIRWWR-NH2) the MIC [1] was > 31.2 µg/mL, the MIC [2] was > 31.2 µg/mL and the MIC [3] was > 62.5 µg/mL.

With CCCCCCCCCCCCCCCCCC(=O)N[C@@H](CCCCN)C(=O)N[C@@H](CCCNC(=N)N)C(=O)N[C@H](C(=O)N[C@@H](Cc1c[nH]c2ccccc12)C(=O)N[C@@H](Cc1c[nH]c2ccccc12)C(=O)N[C@@H](CCCNC(=N)N)C(N)=O)[C@@H](C)CC (Stearoyl-KRIWWR-NH2) the MIC [1] was 15.6 µg/mL (≈ 12.9 µM), the MIC [2] was > 31.2 µg/mL and the MIC [3] was > 62.5 µg/mL.

In the case of CCCCCCCCCCCCCCCCCC(=O)N[C@@H](CCCCN)C(=O)N[C@@H](Cc1c[nH]c2ccccc12)C(=O)N[C@@H](Cc1c[nH]c2ccccc12)C(=O)N[C@@H](CCCCN)C(N)=O (Stearoyl-KWWK-NH2), the MIC [1] is reported as > 31.2 µg/mL, the MIC [2] is reported as > 31.2 µg/mL and the MIC [3] is reported as > 62.5 µg/mL.

CCCCCCCCCCCCCC(=O)N[C@@H](CCCCN)C(=O)N[C@@H](CCCNC(=N)N)C(=O)N[C@H](C(=O)N[C@@H](Cc1c[nH]c2ccccc12)C(=O)N[C@@H](Cc1c[nH]c2ccccc12)C(=O)N[C@@H](CCCNC(=N)N)C(N)=O)[C@@H](C)CC (Myristoyl-KRIWWR-NH2) was tested, and the MIC [1] was 7.8 µg/mL (≈ 6.76 µM), the MIC [2] was 15.6 µg/mL (≈ 13.5 µM) and the MIC [3] was > 62.5 µg/mL.

In the case of CCCCCCCCCCCCCC(=O)N[C@@H](CCCCN)C(=O)N[C@H](C(=O)N[C@@H](CCCCN)C(=O)N[C@@H](CCCNC(=N)N)C(=O)N[C@@H](Cc1c[nH]c2ccccc12)C(=O)N[C@@H](Cc1c[nH]c2ccccc12)C(=O)N[C@@H](CCCNC(=N)N)C(N)=O)[C@@H](C)CC (Myristoyl-KIKRWWR-NH2), the MIC [1] is reported as 15.6 µg/mL (≈ 12.2 µM), the MIC [2] is reported as 31.2 µg/mL (≈ 24.3 µM) and the MIC [3] is reported as > 62.5 µg/mL.

With CCCCCCCCCC(=O)N[C@@H](CCCNC(=N)N)C(=O)N[C@@H](Cc1c[nH]c2ccccc12)C(=O)N[C@@H](CCCNC(=N)N)C(N)=O (Decanoyl-Arg-Trp-Arg-NH2) the MIC [1] was 7.8 µg/mL (≈ 11.6 µM), the MIC [2] was 15.6 µg/mL (≈ 23.3 µM) and the MIC [3] was > 62.5 µg/mL.

In the case of CCCCCCCCCCCCCCCCCC(=O)N[C@@H](CCCCN)C(=O)N[C@@H](CCCCN)C(=O)N[C@H](C(=O)N[C@@H](CCCNC(=N)N)C(=O)N[C@@H](Cc1c[nH]c2ccccc12)C(=O)N[C@@H](CCCNC(=N)N)C(N)=O)[C@@H](C)CC (Stearoyl-KKIRWR-NH2), the MIC [1] is reported as 15.6 µg/mL (≈ 13.5 µM), the MIC [2] is reported as > 31.2 µg/mL and the MIC [3] is reported as > 62.5 µg/mL.

In the case of CCCCCCCCCC(=O)N[C@@H](CCCNC(=N)N)C(=O)N[C@@H](Cc1c[nH]c2ccccc12)C(=O)N[C@@H](CCCNC(=N)N)C(=O)N[C@@H](Cc1c[nH]c2ccccc12)C(N)=O (Decanoyl-RWRW-NH2), the MIC [1] is reported as 7.8 µg/mL (≈ 9.11 µM), the MIC [2] is reported as 15.6 µg/mL (≈ 18.2 µM) and the MIC [3] is reported as > 62.5 µg/mL.

For CCCCCCCCCCCCCCCCCC(=O)N[C@@H](CCCCN)C(=O)N[C@@H](Cc1c[nH]c2ccccc12)C(=O)N[C@@H](CCCCN)C(N)=O (Stearoyl-Lys-Trp-Lys-NH2), the MIC [1] was 31.2 µg/mL (≈ 43 µM), the MIC [2] was > 31.2 µg/mL and the MIC [3] was > 62.5 µg/mL.

With CCCCCCCCCCCCCC(=O)N[C@@H](CCCCN)C(=O)N[C@H](C(=O)N[C@@H](CCCNC(=N)N)C(=O)N[C@@H](Cc1c[nH]c2ccccc12)C(=O)N[C@@H](Cc1c[nH]c2ccccc12)C(=O)N[C@@H](CCCNC(=N)N)C(N)=O)[C@@H](C)CC (Myristoyl-KIRWWR-NH2) the MIC [1] was 15.6 µg/mL (≈ 13.5 µM), the MIC [2] was 31.2 µg/mL (≈ 27 µM) and the MIC [3] was > 62.5 µg/mL.

For CCCCCCCCCCCCCC(=O)N[C@@H](CCCCN)C(=O)N[C@@H](CCCCN)C(=O)N[C@@H](Cc1c[nH]c2ccccc12)C(=O)N[C@@H](CCCCN)C(N)=O (Myristoyl-KKWK-NH2), the MIC [1] was 3.9 µg/mL (≈ 4.89 µM), the MIC [2] was 7.8 µg/mL (≈ 9.77 µM) and the MIC [3] was > 62.5 µg/mL.

For CCCCCCCCCCCCCC(=O)N[C@@H](CCCNC(=N)N)C(=O)N[C@@H](Cc1c[nH]c2ccccc12)C(=O)N[C@@H](CCCNC(=N)N)C(=O)N[C@@H](Cc1c[nH]c2ccccc12)C(N)=O (Myristoyl-RWRW-NH2), the MIC [1] was 15.6 µg/mL (≈ 17.1 µM), the MIC [2] was 15.6 µg/mL (≈ 17.1 µM) and the MIC [3] was > 62.5 µg/mL.

In the case of CCCCCCCCCCCCCCCCCC(=O)N[C@@H](CCCNC(=N)N)C(=O)N[C@@H](Cc1c[nH]c2ccccc12)C(=O)N[C@@H](CCCNC(=N)N)C(=O)N[C@@H](Cc1c[nH]c2ccccc12)C(N)=O (Stearoyl-RWRW-NH2), the MIC [1] is reported as > 31.2 µg/mL, the MIC [2] is reported as > 31.2 µg/mL and the MIC [3] is reported as > 62.5 µg/mL.

CCCCCCCCCCCCCCCCCC(=O)N[C@@H](CCCNC(=N)N)C(=O)N[C@@H](CCCCN)C(=O)N[C@@H](Cc1c[nH]c2ccccc12)C(=O)N[C@@H](Cc1c[nH]c2ccccc12)C(=O)N[C@@H](CCCCN)C(N)=O (Stearoyl-RKWWK-NH2) was tested, and the MIC [1] was 31.2 µg/mL (≈ 29.2 µM), the MIC [2] was 125 µg/mL (≈ 117 µM) and the MIC [3] was > 62.5 µg/mL.

In the case of CCCCCC(=O)N[C@@H](CCCNC(=N)N)C(=O)N[C@@H](CCCCN)C(=O)N[C@@H](Cc1c[nH]c2ccccc12)C(=O)N[C@@H](Cc1c[nH]c2ccccc12)C(=O)N[C@@H](CCCCN)C(N)=O (Hexanoyl-RKWWK-NH2), the MIC [1] is reported as 31.2 µg/mL (≈ 34.7 µM) and the MIC [2] is reported as > 62.5 µg/mL.

Molecule CCCCCCCCCCCCCCCC(=O)N[C@@H](CCCNC(=N)N)C(=O)N[C@@H](CCCCN)C(=O)N[C@@H](Cc1c[nH]c2ccccc12)C(=O)N[C@@H](Cc1c[nH]c2ccccc12)C(=O)N[C@@H](CCCCN)C(N)=O (Palmitoyl-RKWWK-NH2) has an MIC [1] of 31.2 µg/mL (≈ 30 µM) and an MIC [2] of 31.2 µg/mL (≈ 30 µM).
